Results published in US20210369746A1, “ADMINISTRATION OF HYPOXIA ACTIVATED PRODRUGS IN COMBINATION WITH IMMUNE MODULATORY AGENTS FOR TREATING CANCER” (MOLECULAR TEMPLATES, INC., priority 2016, published 2021).

Tested on: TRAMP-C2 and/or Panc02 pancreatic ductal adenocarcinoma cells
Test: Antitumor activity of TH-302 with immune modulating agents in mice xenografts
Format: in vivo
Settings: single agent; TH-302 50 mg/kg i.p. every day for 5 days; tumor growth observed by IVIS
Procedure: 5×10^5 to 1×10^6 TRAMP-C2, C57BL/6J, B6, FVB F1 cells and/or Panc02 pancreatic ductal adenocarcinoma cells expressing luciferase are […] implanted s.c. on the right flank of albino or ODD-Luc reporter mice. The mice are treated with TH-302 alone (50 mg/kg i.p., every day for 5 days), either 1 week, 3 weeks or 16 weeks after TRAMP cell implantation, with a week of rest in between. Some mice are also treated with CTLA-4 blocking antibody 9H10, PD-1 blocking antibody RMP1-14 and/or agonistic […] antibody given i.p. on days 1, 4, 7 and days 13, 16 and 19 for one to three cycles. Mice are monitored for survival (log-rank, mantel-cox test) and tumor growth was observed by IVIS once a week up to 140 days after tumor implantation. The mice were then sacrificed and their organs were weighed and tumors were isolated, fixed in paraformaldehyde or acetone, embedded/mounted in OCT, frozen, sectioned, stained for hypoxia with anti-piminidazole FITC, GR-1 V450, CD11b Alexa 546, and/or F4/80 Alexa 647.

Cn1c(COP(=O)(NCCBr)NCCBr)cnc1[N+](=O)[O-] [TH-302]
tumor growth delay: produced a growth delay
